Source: PubChem BioAssay (NCI)
Several values for one entry are separate records, joined by “and”; a condition that tells them apart may be missing. Equal entries are not always repeated.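 Tested at 5 concentrations; 48 h exposure; 96-well plates; endpoints linearly interpolated, else capped at highest concentration. GI50 marks 50% less growth. TGI marks complete inhibition of growth.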

What was measured:
Experiment in all cases: DTP human tumour cell line panel, 48 h
A549 NSCLC = test system: A549 NSCLC
MALME-3M melanoma = test system: MALME-3M melanoma
786-0 renal = test system: 786-0 renal
UO-31 renal = test system: UO-31 renal
OVCAR-5 ovarian = test system: OVCAR-5 ovarian
ACHN renal = test system: ACHN renal
NCI-H226 lung = test system: NCI-H226 lung
TK-10 renal = test system: TK-10 renal
UACC-257 melanoma = test system: UACC-257 melanoma
CAKI-1 renal = test system: CAKI-1 renal
T-47D breast = test system: T-47D breast
KM12 colon = test system: KM12 colon
RPMI-8226 leukemia = test system: RPMI-8226 leukemia

| Compound | TGI (A549 NSCLC) | TGI (MALME-3M melanoma) | TGI (786-0 renal) | TGI (UO-31 renal) | TGI (OVCAR-5 ovarian) | TGI (ACHN renal) | TGI (NCI-H226 lung) | TGI (TK-10 renal) | TGI (UACC-257 melanoma) | TGI (CAKI-1 renal) | TGI (T-47D breast) | TGI (KM12 colon) | TGI (RPMI-8226 leukemia) | GI50 (MALME-3M melanoma) | GI50 (OVCAR-5 ovarian) | GI50 (NCI-H226 lung) | GI50 (TK-10 renal) | GI50 (UACC-257 melanoma) | GI50 (KM12 colon) |
| --- | --- | --- | --- | --- | --- | --- | --- | --- | --- | --- | --- | --- | --- | --- | --- | --- | --- | --- | --- |
| CCCCC1=C(C(=O)N2CCOCC2)C2(OCCO2)C1Cl (centres undefined) | 48.9 µM | > 100 µM | > 100 µM | > 100 µM | 45.5 µM | 52.1 µM | > 100 µM | > 100 µM | 60.9 µM | 86.5 µM | > 100 µM | 41.5 µM |  |  |  |  |  |  |  |
| C=C[C@@]1(C)CC(=O)[C@]2(O)[C@@]3(C)[C@@H](OC(C)=O)CCC(C)(C)[C@@H]3[C@H](O)[C@H](OC(C)=O)[C@@]2(C)O1 | > 100 µM |  | > 100 µM | > 100 µM | > 100 µM | > 100 µM | > 100 µM |  | > 100 µM | > 100 µM | > 100 µM | > 100 µM |  |  |  |  |  |  |  |
| CCCC[P+](CCCC)(CCCC)C(C(=O)OC)C(C(=O)OC)=C1SC(C(=O)OC)=C(C(=O)OC)S1 (centres undefined) | > 100 µM | > 100 µM | > 100 µM | > 100 µM | > 100 µM | > 100 µM | > 100 µM | > 100 µM | > 100 µM |  | > 100 µM |  | > 100 µM |  |  |  |  |  |  |
| CC1=NN(c2cccc(Cl)c2)C(=N/c2nc3ccccc3s2)/C1=C\c1ccccc1O |  |  | > 100 µM | > 100 µM | > 100 µM | 74.3 µM | 87.8 µM | > 100 µM | 62.2 µM | > 100 µM | > 100 µM | > 100 µM | > 100 µM |  |  |  |  |  |  |
| CSC1=C(C)S/C(=C\c2ccc(/C=C3\SC(C)=C(SC)S3)cc2)S1 | > 100 µM | > 100 µM | > 100 µM | > 100 µM | > 100 µM | > 100 µM | > 100 µM | > 100 µM | > 100 µM | > 100 µM | > 100 µM | > 100 µM |  |  |  |  |  |  |  |
| c1ccc2c(c1)Sc1ccccc1N2CCCN1c2ccccc2Sc2ccccc21 | > 100 µM | > 100 µM | 45.2 µM | > 100 µM | > 100 µM | > 100 µM | > 100 µM | > 100 µM | > 100 µM | > 100 µM | > 100 µM | > 100 µM |  |  |  |  |  |  |  |
| CN(C(=O)C12C3C4C1C1C2C3C41C(=O)O)C(C)(C)C (centres undefined) | > 100 µM |  | > 100 µM | > 100 µM | > 100 µM | > 100 µM |  | > 100 µM | > 100 µM | > 100 µM | > 100 µM | > 100 µM |  |  |  |  |  |  |  |
| CC(C)OP(=O)(OC(C)C)c1nn(-c2ccc([N+](=O)[O-])cc2)c(=N)s1 | > 100 µM | > 100 µM |  | > 100 µM | > 100 µM | > 100 µM |  | > 100 µM | > 100 µM | > 100 µM |  | > 100 µM | > 100 µM |  |  |  |  |  |  |
| CC(SC(=S)N1CCCC1)C(=O)Nc1nnc(-c2ccc(Cl)cc2)o1 (centres undefined) | > 100 µM | 84.2 µM | 32.9 µM | 63.9 µM | > 100 µM | > 100 µM | > 100 µM | > 100 µM | > 100 µM |  | > 100 µM |  | 44.8 µM |  |  |  |  |  |  |
| CC[C@@]1(O)C(=O)OCc2c1cc1n(c2=O)Cc2c-1nc1ccccc1c2C=Nc1ccc(N[C@@H]2c3cc4c(cc3[C@@H](c3cc(OC)c(O)c(OC)c3)[C@H]3C(=O)OC[C@@H]32)OCO4)cc1 | 15.6 µM and 1.84 µM |  | 0.329 µM | 1.52 µM |  | 0.0374 µM | 2.71 µM and 0.308 µM | 28.5 µM and 3.33 µM |  |  |  | > 44.3 µM and 6.24 µM |  | 0.676 µM and 0.155 µM | 0.545 µM and 0.141 µM | 0.0483 µM and 0.0179 µM | 2.16 µM and 0.815 µM | 0.354 µM | 1.69 µM and 0.269 µM |
| COC(=O)/C=C/COCC1C2CCC(=O)C21 (centres undefined) | > 100 µM | > 100 µM | > 100 µM | > 100 µM | > 100 µM | > 100 µM | > 100 µM | > 100 µM | > 100 µM | 51.5 µM |  | > 100 µM | > 100 µM |  |  |  |  |  |  |
| CN(O)C(=O)c1ccc(OCc2cccc(Cl)c2)cc1 | > 100 µM |  | 53.1 µM | > 66.5 µM | > 100 µM | > 68.3 µM | > 100 µM | > 100 µM | > 100 µM | > 92.6 µM | 98.6 µM | > 100 µM | > 100 µM |  |  |  |  |  |  |
| CC1CC/C(=C\c2ccc(Cl)cc2)C(=O)/C1=C\c1ccc(Cl)cc1 (centres undefined) | > 100 µM |  | > 100 µM | > 100 µM | 44.6 µM | > 100 µM |  | 79.8 µM | > 100 µM | 44.9 µM | > 100 µM | 41.5 µM |  |  |  |  |  |  |  |
| CCOC(=O)C12C3CCC1C2C(=O)C3 (centres undefined) | > 100 µM | > 100 µM | > 100 µM | > 100 µM | > 100 µM | > 100 µM | > 100 µM | > 100 µM | > 100 µM | > 100 µM |  | > 100 µM | > 100 µM |  |  |  |  |  |  |
| Cc1ccc(/C(O)=C/c2nc3ccccc3nc2NC23CC4CC(CC(C4)C2)C3)cc1 | > 10 µM | > 10 µM | > 10 µM |  | > 10 µM | > 10 µM |  | > 10 µM | > 10 µM | > 10 µM | > 10 µM | > 10 µM | > 10 µM |  |  |  |  |  |  |
| C[C@@H]1C(=O)O[C@@H]2C[C@@]1(C)[C@@H]1C(=O)C3(O)OC14C2(C)OC(=O)[C@@]4(O)CCC1C3C(O)C=C2CC=CC(=O)[C@@]21C (some centres undefined) | > 100 µM |  | > 100 µM | 87.9 µM | 67.9 µM | > 100 µM |  | > 100 µM | > 100 µM | > 100 µM | > 100 µM | 71.1 µM | 61.3 µM |  |  |  |  |  |  |
| CCOC(=O)c1nc2cc(F)c(F)cc2nc1NCc1cc(OC)c(OC)c(OC)c1 | > 100 µM | > 100 µM | > 100 µM | > 100 µM | > 100 µM | > 100 µM |  | > 100 µM | > 100 µM | > 100 µM | > 100 µM | > 100 µM |  |  |  |  |  |  |  |
| COc1ccc(OC)c2sc(N3C(=O)/C(=C/c4ccc(N(C)C)cc4)N=C3c3ccccc3)nc12 | > 100 µM |  | > 100 µM | > 100 µM | > 100 µM | > 100 µM |  | > 100 µM | > 100 µM | > 100 µM | > 100 µM | > 100 µM | > 100 µM |  |  |  |  |  |  |
| CCOC(=O)CCN1C(=O)c2ccc(NC(=O)C(=O)O)cc2S1(=O)=O | > 100 µM | > 100 µM | > 100 µM | > 100 µM | > 100 µM | > 100 µM | > 100 µM | > 100 µM | > 100 µM | > 100 µM |  | > 100 µM | > 100 µM |  |  |  |  |  |  |
